# Measured values taken from patent US6030961A, “Oxyalkylene phosphate compounds and uses thereof” (Bar-Ilan Research & Development Co., Ltd., priority 1997, dated 2000).
# pIC50: −log10 of the molar value. Entries after “also recorded” stand apart in the source; their conditions may differ. Where two headings read alike, the source gives them in different places.
# Tests used:
# human tumor cell lines = experiment: Clonogenicity of established tumor cell lines, summary over cell lines
# Method: (§1) The cell lines listed in Table 2 were grown to 70-80% confluence in complete medium (RPMI 1640 containing 10% fetal calf serum (FCS), 100 IU penicillin, 100 μg/mL streptomycin and 2 mM L-glutamine). Cells were harvested, washed in complete medium and counted. Cell viability was determined by trypan blue exclusion. The cells were placed into soft agar (0.12% in media) and plated at 5,000 viable cells per well onto an agarose underlayer (0.4%) in 24-well plates. After overnight culture, AB or BODP was added at the indicated concentration. Control cells received media alone. As a control for cell death, cells were treated with a superlethal dose of 10 μg/ml of cisplatin. The dosage of AB or BODP which inhibited fifty percent or ninety percent of cell proliferation (IC50 or IC90 respectively) was calculated using the Chou Analysis' Median Effective Dose equation.
# (§2) Clonogenicity is determined as the percentage of clones in treated cultures relative to clones in mediumun-treated control cultures.
# [1] = system: β-thalassemia and sickle-cell anemia patients; details: cited from earlier work
# [2] = system: pancreatic cell line, BxPC-3; experiment: Colony-forming assay, 24 hour exposure; assay type: cell-based, human; details: 24 hour treatment
# Method: The effect of 24 hour exposure to BODP or AB was determined by a colony-forming assay on the pancreatic cell line, BxPC-3, which is a primary adenocarcinoma (ACTTnr:CRL-1687). Freshly trypsinized cells were plated at 500 cells/dish in 60 mm^2 tissue culture dishes with the indicated concentration of each compound and incubated for 24 hours at 37° C. in 5% CO2 /air atmosphere. The cultures were washed with PBS, fresh medium was added, and the cultures were incubated for 7-12 days to allow the formation of colonies. Colonies were fixed with methanol, stained with Giemsa and counted. All incubations were performed in triplicate.
# SMS-KCN [3] = experiment: cells; details: Homo sapiens
# Method: as §1, §2
# NGP = experiment: Clonogenicity (soft agar) of established tumor cell lines, NGP
# Method: as §1, §2
# K562 cells [4] = experiment: Hb-containing K562 cells by benzidine staining; assay type: cell-based; details: for extent of differentiation, dose dependence: hemoglobin accumulation, K562
# [5] = U.S. Pat. No. 5,200,553; Nudelman et al.; cited from earlier work
# nuclear deacetylase(s) = details: cited from earlier work
# B16 melanoma = details: cited from earlier work
# neoplastic cells = details: in vitro; cited from earlier work
# [6] = system: HL-60 promyelocytic leukemia; details: cited from earlier work
# [7] = cited from earlier work
# [8] = system: expression of transfected DNA; details: cited from earlier work
# cancer patients = details: cited from earlier work
# SK-N-SH = experiment: Clonogenicity (soft agar) of established tumor cell lines, SK-N-SH
# Method: as §1, §2
# LA1-5S = experiment: Clonogenicity (soft agar) of established tumor cell lines, LA1-5S
# Method: as §1, §2
# NBAS-5 = experiment: Clonogenicity (soft agar) of established tumor cell lines, NBAS-5
# Method: as §1, §2
# SMS-KAN = experiment: Clonogenicity (soft agar) of established tumor cell lines, SMS-KAN
# Method: as §1, §2
# NBL-W-N = experiment: Clonogenicity (soft agar) of established tumor cell lines, NBL-W-N
# Method: as §1, §2
# K562 cells [9] = experiment: Total Hb content of K562 cultures by HPLC; assay type: cell-based; details: molar basis vs AB; FIG. 5
# Method: (2) Quantitative measurement of fetal hemoglobin (HbF) in K562 culture or human erythroid cultures was determined by ion-exchange high pressure liquid chromatography (HPLC) as described by Fibach et al., Blood 81:1630-1635, 1993.
# K562 cells: K562 is an erythroblast cell line (obtained from the ATCC, Rockville, Md.) that develops some properties of erythroid, megakaryocyte or monocyte cells, depending on the specific stimulus, when induced by different chemicals. K562 cells were grown in RPMI medium with 10% FCS, supplemented with 2 mM glutamine. Cells were incubated at 37° C. in a humidified, 5% CO2 incubator.
# SMS-KCN [10] = system: SMS-KCN
# Method: as §1, §2
# SK-N-MC = experiment: Clonogenicity (soft agar) of established tumor cell lines, SK-N-MC
# Method: as §1, §2
# IMR-32 = experiment: Clonogenicity (soft agar) of established tumor cell lines, IMR-32
# Method: as §1, §2
# [11] = system: human colon carcinoma, leukemia and retinoblastoma cell lines; details: in vitro; cited from earlier work
# [12] = system: reporter gene in primary and immortalized cell lines; details: cited from earlier work
# Method for HL-60 cells: The level of CD11b was measured on HL-60 cells by flow cytometry using a monoclonal antibody (MAb) against CD11b in a standard indirect immunofluorescence assay. Cells were cultured for three or six days with the indicated concentration of BODP. Cultured cells were collected by centrifugation, resuspended at 10^6 cells per 20 μl RPMI+10% FCS and incubated with MAb for 30 minutes at 4° C. The cells were washed twice in cold PBS+10% FCS and incubated with a 1:20 dilution of FITC-conjugated F(ab')^2 fragment of rabbit anti-mouse IgG for 20-30 minutes at 4° C. in the dark. After washing the cells twice in cold PBS+10% FCS, flow cytometry was performed on a FACSstar (Becton Dickson) using an argon ion laser adjusted to excitation wavelength of 488 nm on samples containing 10^4 cells.
compound,measurement,setting,value
"CCCC(=O)O [AB, arginine butyrate, reference compound]","inhibition of cell proliferation, dose dependence",human tumor cell lines,inhibit cell proliferation in a dose-dependent manner
same,clinical efficacy,[1]; clinical trials,moderate efficacy
same,side effects,[1]; β-thalassemia and sickle-cell anemia patients,"hypokalemia, headache, nausea and vomiting"
same,growth inhibition at 100 μM,[2]; 100 μM,did not cause complete growth inhibition
same,increase in CD11b at the same concentration,HL-60 cells; 40 μM,no increase in CD11b
same,expression of CD11b,HL-60 cells; 800 μM,12%
same,pIC50,SMS-KCN [3],2.73
same,pIC50,NGP; Homo sapiens,3.71
same,IC90,NGP; Homo sapiens,1620 µM
same,"extent of differentiation, dose dependence",K562 cells [4],directly related to the drug dose
"CCCC(=O)OCOC(=O)C(C)(C)C [AN-9, pivaloyloxymethyl butyrate]",activity among butyric acid prodrugs,[5],most active
"CCCC(=O)O [BA, Butyric acid]",effect on nuclear deacetylase(s) and histone acetylation,nuclear deacetylase(s),"inhibition of nuclear deacetylase(s), resulting in hyperacetylation of histones H3 and H4"
same,expression of c-myc and H-ras oncogenes,B16 melanoma,decrease in the expression of c-myc and H-ras oncogenes
same,differentiating and antiproliferative activity,neoplastic cells,potent differentiating and antiproliferative agent
same,expression of c-myc,[6],decrease
same,half-life in vivo,[7],very short half-lives in vivo
same,metabolism,[7]; in vivo,metabolized rapidly
same,expression of transfected DNA,[8],increase the expression of transfected DNA
same,clinical efficacy in cancer patients,cancer patients; BA and BA salts,minimal or transient efficacy
same,odor in patients,cancer patients; patients receiving BA,unpleasant odor
"CCCC(=O)OCOP(=O)(OCC)OCC [BODP, butyroyloxymethyl diethyl phosphate]","inhibition of cell proliferation, dose dependence",human tumor cell lines,inhibit cell proliferation in a dose-dependent manner
same,"growth inhibition / clonogenicity inhibition potency, in words",human tumor cell lines; BODP vs AB,more potent growth inhibitor than AB; also recorded: significantly more potent tumor cell clonogenicity inhibitor than AB
same,sensitivity of the cells to BODP compared with AB,human tumor cell lines; BODP vs AB,at least an order of magnitude more sensitive
same,"ratio of IC50 AB:IC50 BODP, median value",human tumor cell lines; median over cell lines,25.2
same,"ratio of IC90 AB:IC90 BODP, median value",human tumor cell lines; median over cell lines,28.75
same,concentration causing complete inhibition,[2],above 50 μM
same,"growth inhibition, dose dependence",[2],dose-ependent growth inhibition
same,increase of CD11b expression over untreated cells,"HL-60 cells; 40 μM, four days, 5760 min",7 fold
same,"differentiation induction, in words",HL-60 cells; BODP vs AB,more active differentiation inducer compared to AB
same,pIC50,SK-N-SH,4.82
same,IC90,SK-N-SH,44 µM
same,Ratio AB/BODP IC50,SK-N-SH,66.5
same,Ratio AB/BODP IC90,SK-N-SH,77.2
same,pIC50,LA1-5S,4.42
same,IC90,LA1-5S,105 µM
same,Ratio AB/BODP IC50,LA1-5S,42.8
same,Ratio AB/BODP IC90,LA1-5S,25.5
same,pIC50,NBAS-5,4.68
same,IC90,NBAS-5,71 µM
same,Ratio AB/BODP IC50,NBAS-5,42
same,Ratio AB/BODP IC90,NBAS-5,183.5
same,pIC50,SMS-KAN,4.35
same,IC90,SMS-KAN,128 µM
same,Ratio AB/BODP IC50,SMS-KAN,25.3
same,Ratio AB/BODP IC90,SMS-KAN,16.2
same,pIC50,NBL-W-N,4.42
same,IC90,NBL-W-N,96 µM
same,Ratio AB/BODP IC50,NBL-W-N,12.9
same,Ratio AB/BODP IC90,NBL-W-N,32
same,pIC50,NGP,4.77
same,IC90,NGP,49 µM
same,Ratio AB/BODP IC50,NGP,11.6
same,Ratio AB/BODP IC90,NGP,33.1
same,total Hb content of the cultures,K562 cells [9],higher activity in inducing erythroid differentiation
same,pIC50,SMS-KCN [10],4.27
same,Ratio AB/BODP IC50,SMS-KCN [10],34.7
same,"extent of differentiation, dose dependence",K562 cells [4],directly related to the drug dose
same,proportion of Hb-containing cells per total cell population,"K562 cells [4]; molar basis vs AB, 5 days exposure, FIG. 4",higher proportion of Hb-containing cells
same,pIC50,SK-N-MC,4.43
same,IC90,SK-N-MC,145 µM
same,Ratio AB/BODP IC50,SK-N-MC,5.8
same,Ratio AB/BODP IC90,SK-N-MC,9.1
same,pIC50,IMR-32,4.46
same,IC90,IMR-32,88 µM
same,Ratio AB/BODP IC50,IMR-32,25.2
same,Ratio AB/BODP IC90,IMR-32,40.5
"CCCC(=O)[O-].[Na+] [SB, sodium butyrate]",apoptosis,[11],produce apoptosis in vitro
CCCC(=O)OCC(COC(=O)CCC)OC(=O)CCC [Tributyrin],expression of a reporter gene,[12],enhance the expression of a reporter gene
